What was measured:
[1] = target: T1, P2X7 receptor (Homo sapiens, UniProt Q99572); test: P2X7 receptor antagonist test: bbATP-induced ethidium bromide fluorescence in THP-1 cells; assay type: cell-based; conditions: negative logarithm of the concentration of test compound necessary to reduce the bbATP agonist activity by 50%, 10^-5M bbATP solution, 37° C. for one hour
T1 construct: 200 μl of a suspension of THP-1 cells; endogenous in cells; host or cells: THP-1 cells
T1 sequence (Q99572 1-595): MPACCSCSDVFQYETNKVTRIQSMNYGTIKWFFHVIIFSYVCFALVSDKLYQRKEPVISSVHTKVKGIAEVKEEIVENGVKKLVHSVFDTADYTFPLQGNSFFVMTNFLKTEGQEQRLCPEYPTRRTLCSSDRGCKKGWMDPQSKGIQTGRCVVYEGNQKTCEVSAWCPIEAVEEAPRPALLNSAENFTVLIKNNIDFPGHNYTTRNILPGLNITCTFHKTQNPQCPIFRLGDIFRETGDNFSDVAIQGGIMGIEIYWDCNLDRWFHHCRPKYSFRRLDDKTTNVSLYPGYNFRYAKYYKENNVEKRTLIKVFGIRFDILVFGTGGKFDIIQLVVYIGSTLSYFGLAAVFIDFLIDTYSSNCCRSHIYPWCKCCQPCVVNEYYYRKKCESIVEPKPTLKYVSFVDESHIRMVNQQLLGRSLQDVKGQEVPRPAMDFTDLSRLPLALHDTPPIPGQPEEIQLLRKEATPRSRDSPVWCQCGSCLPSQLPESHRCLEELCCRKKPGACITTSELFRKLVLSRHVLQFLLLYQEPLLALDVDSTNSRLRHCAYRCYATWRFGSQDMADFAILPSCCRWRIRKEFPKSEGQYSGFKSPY
Text: Certain compounds such as benzoylbenzoyl adenosine triphosphate (bbATP) are known to be agonists of the P2X7 receptor, effecting the formation of pores in the plasma membrane (Drug Development Research (1996), 37(3), p. 126). Consequently, when the receptor is activated using bbATP in the presence of ethidium bromide (a fluorescent DNA probe), an increase in the fluorescence of intracellular DNA-bound ethidium bromide is observed. The increase in fluorescence can be used as a measure of P2X7 receptor activation and therefore to quantif the effect of a compound on the P2X7 receptor.
In this manner, each of the title compounds of the Examples was tested for antagonist activity at the P2X7 receptor. Thus, the test was performed in 96-well flat bottomed microtitre plates, the wells being filled with 250 μl of test solution comprising 200 μl of a suspension of THP-1 cells (2.5×10^6 cells/ml) containing 10^−4M ethidium bromide, 25 μl of a high potassium buffer solution containing 10^−5M bbATP, and 25 μl of the high potassium buffer solution containing concentrations of test compound typically from 30 μM-0.001 μM. The plate was covered with a plastics sheet and incubated at 37° C. for one hour. The plate was then read in a Perkin-Elmer fluorescent plate reader, excitation 520 nm, emission 595 nm, slit widths: Ex 15 nm, Em 20 nm. […]

With `O=C(NC[C@@H]1CCCCC[C@@H]1O)c1cc(-c2ccccc2C(=O)O)ccc1Cl` (relative stereo) [Example 8, 4′-Chloro-3′-[[[[cis-2-hydroxycycloheptyl]methyl]amino]carbonyl]-[1,1′-biphenyl]-2-carboxylic acid] the melting point was 193 to 195 °C.
In the case of `O=C(NCCc1ccccc1Cl)c1cc(-c2ccccc2C(=O)O)ccc1Cl` [Example 1, 4′-Chloro-3′-[[[2-(2-chlorophenyl)ethyl]amino]carbonyl]-[1,1′-biphenyl]-2-carboxylic acid], the melting point is reported as 136 to 140 °C (dec.).
Work on `O=C(NCC1(O)CCCCCC1)c1cc(-c2ccccc2C(=O)O)ccc1Cl` [Example 2, 4′-Chloro-3′-[[[(1-hydroxycycloheptyl)methyl]amino]carbonyl]-[1,1′-biphenyl]-2-carboxylic acid] yielded an IC50 [1] of 63.1 nM.
Work on `O=C(NCC1CCCCC1)c1cc(-c2ccccc2C(=O)O)ccc1Cl` [Example 3, 4′-Chloro-3′-[[(cyclohexylmethyl)amino]carbonyl]-[1,1′-biphenyl]-2-carboxylic acid] yielded a melting point of 212 to 214 °C.
`C[C@H](CNC(=O)c1cc(-c2ccccc2C(=O)O)ccc1Cl)c1ccccc1` [Example 4, 4′-Chloro-3′-[[[(2S)-2-phenylpropyl]amino]carbonyl]-[1,1′-biphenyl]-2-carboxylic acid] showed a melting point of 160 to 162 °C.
Work on `CC1(C)[C@H]2CC[C@@H](CNC(=O)c3cc(-c4ccccc4C(=O)O)ccc3Cl)[C@@H]1C2` [Example 5, 4′-Chloro-3′-[[[[(1S,2R,5S)-6,6-dimethylbicyclo[3.1.1]hept-2-yl]methyl]amino]car-bonyl]-[1,1′-biphenyl]-2-carboxylic acid] yielded a melting point of 170 to 172 °C.
For `O=C(NCC1CCCCCC1)c1cc(-c2ccccc2C(=O)O)ccc1Cl` [Example 6, 4′-Chloro-3′-[[(cycloheptylmethyl)amino]carbonyl]-[1,1′-biphenyl]-2-carboxylic acid], the melting point was 201 to 203 °C.
For `O=C(NCC1(O)CCCCC1)c1cc(-c2ccccc2C(=O)O)ccc1Cl` [Example 7, 4′-Chloro-3′-[[[(1-hydroxycyclohexyl)methyl]amino]carbonyl]-[1,1′-biphenyl]-2-carboxylic acid], the melting point was 202 to 204 °C.
`O=C(NCCC1CCCCC1)c1cc(-c2ccccc2C(=O)O)ccc1Cl` [Example 9, 4′-Chloro-3′-[[(2-cyclohexylethyl)amino]carbonyl]-[1,1′-biphenyl]-2-carboxylic acid] gave a melting point of 191 to 193 °C.
Compound `O=C(NCC1CCCCCC1)c1cc(-c2cccnc2C(=O)O)ccc1Cl` [Example 10, 3-[4-Chloro-3-[[(cycloheptylmethyl)amino]carbonyl]phenyl]-2-pyridinecarboxylic acid] has a melting point of 166 to 168 °C.
In the case of `O=C(NCCC1CCCCC1)c1cc(-c2cccnc2C(=O)O)ccc1Cl` [Example 11, 3-[4-Chloro-3-[[(2-cyclohexylethyl)amino]carbonyl]phenyl]-2-pyridinecarboxylic acid], the melting point is reported as 104 to 107 °C.
Work on `C[C@@H](NC(=O)c1cc(-c2ccccc2C(=O)O)ccc1Cl)C1CCCCC1` [Example 12, 4′-Chloro-3′-[[[(1R)-1-cyclohexylethyl]amino]carbonyl]-[1,1′-biphenyl]-2-carboxylic acid] yielded a melting point of 139 to 141 °C.
For `CC1(CNC(=O)c2cc(-c3ccccc3C(=O)O)ccc2Cl)CCCCCC1` [Example 13, 4′-Chloro-3′-[[[(1-methylcycloheptyl)methyl]amino]carbonyl]-[1,1′-biphenyl]-2-carboxylic acid], the melting point was 180 to 183 °C.
`O=C(NCC1(CO)CCCCCC1)c1cc(-c2ccccc2C(=O)O)ccc1Cl` [Example 14, 4′-Chloro-3′-[[[[1-(hydroxymethyl)cycloheptyl]methyl]amino]carbonyl]-[1,1′-biphenyl]-2-carboxylic acid] showed a melting point of 175 to 177 °C.
Compound `Cc1ccc(-c2ccccc2C(=O)O)cc1C(=O)NCC1CCCCCC1` [Example 16, 3′-[[(Cycloheptylmethyl)amino]carbonyl]-4′-methyl-[1,1′-biphenyl]-2-carboxylic acid] has a melting point of 188 to 189 °C.
For `Cc1ccc(-c2ccc(Cl)c(C(=O)O)n2)cc1C(=O)NCC1CCCCCC1` [Example 18, 3-Chloro-6-[3-[[(cycloheptylmethyl)amino]carbonyl]-4-methylphenyl]-2-pyridinecarboxylic acid], the melting point was 177 to 178 °C.
With `O=C(NCCC1CCCCC1)c1cc(-c2ncc(Cl)cc2C(=O)O)ccc1Cl` [Example 19, 5-Chloro-2-[4-chloro-3-[[(2-cyclohexylethyl)amino]carbonyl]phenyl]-3-pyridinecarboxylic acid] the melting point was 208 to 211 °C.
Compound `O=C(NCC1CCCCCC1)c1cc(-c2ncc(Cl)cc2C(=O)O)ccc1Cl` [Example 20, 5-Chloro-2-[4-chloro-3-[[(cycloheptylmethyl)amino]carbonyl]phenyl]-3-pyridinecarboxylic acid] has a melting point of 176 to 179 °C.
`O=C(NCC1(O)CCCCCC1)c1cc(-c2ncc(Cl)cc2C(=O)O)ccc1Cl` [Example 21, 5-Chloro-2-[4-chloro-3-[[[(1-hydroxycycloheptyl)methyl]amino]carbonyl]phenyl]-3-pyridinecarboxylic acid] showed a melting point of 201 to 204 °C.
In the case of `O=C(NCCC1CCCCC1)c1cc(-c2ccc(Cl)c(C(=O)O)n2)ccc1Cl` [Example 22, 3-Chloro-6-[4-chloro-3-[[(2-cyclohexylethyl)amino]carbonyl]phenyl]-2-pyridinecarboxylic acid], the melting point is reported as 189 to 190 °C.
`O=C(NCC1CCCCCC1)c1cc(-c2ccc(Cl)c(C(=O)O)n2)ccc1Cl` [Example 23, 3-Chloro-6-[4-chloro-3-[[(cycloheptylmethyl)amino]carbonyl]phenyl]-2-pyridinecarboxylic acid] gave a melting point of 189 to 190 °C.
`O=C(NCC1(O)CCCCCC1)c1cc(-c2ccc(Cl)c(C(=O)O)n2)ccc1Cl` [Example 24, 3-Chloro-6-[4-chloro-3-[[[(1-hydroxycycloheptyl)methyl]amino]carbonyl]phenyl]-2-pyridinecarboxylic acid] showed a melting point of 146 to 149 °C.
`O=C(NCCC1CCCCC1)c1cc(-c2cccnc2N2CCC(C(=O)O)CC2)ccc1Cl` [Example 25, 1-[3-[4-Chloro-3-[[(2-cyclohexylethyl)amino]carbonyl]phenyl]-2-pyridinyl]-4-piperidinecarboxylic acid] showed a melting point of 116 to 120 °C.
Compound `O=C(NCC1CCCCCC1)c1cc(-c2cccnc2N2CCC(C(=O)O)CC2)ccc1Cl` [Example 26, 1-[3-[4-Chloro-3-[[(cycloheptylmethyl)amino]carbonyl]phenyl]-2-pyridinyl]-4-piperidinecarboxylic acid] has an IC50 [1] of 100 nM.
For `O=C(NCC1(O)CCCCCC1)c1cc(-c2cccnc2N2CCC(C(=O)O)CC2)ccc1Cl` [Example 27, 1-[3-[4-Chloro-3-[[[(1-hydroxycycloheptyl)methyl]amino]carbonyl]phenyl]-2-pyridinyl]-4-piperidinecarboxylic acid], the melting point was 117 to 119 °C.
